Measurements published in BindingDB's records for patent US20240059728 (Galecto Biotech, 2024).

Tests used:
Galectin-1 = Galectin-1 (Homo sapiens, UniProt P09382); test: Evaluation of Kd Values
Method: (§1) The affinity of Example 1-14 for galectins were determined by a fluorescence anisotropy assay where the compound was used as an inhibitor of the interaction between galectin and a fluorescein tagged saccharide probe as described S rme, P., Kahl-Knutsson, B., Huflejt, M., Nilsson, U. J., and Leffler H. (2004) Fluorescence polarization as an analytical tool to evaluate galectin-ligand interactions. Anal. Biochem. 334: 36-47, (Sarme et al., 2004) and Monovalent interactions of Galectin-1 By Salomonsson, Emma; Larumbe, Amaia; Tejler, Johan; Tullberg, Erik; Rydberg, Hanna; Sundin, Anders; Khabut, Areej; Frejd, Torbjorn; Lobsanov, Yuri D.; Rini, James M.; et al, From Biochemistry (2010), 49(44), 9518-9532, (Salomonsson et al., 2010).

Galectin-3 = Galectin-3 (Homo sapiens, UniProt P17931); test: Evaluation of Kd Values
Chain of Galectin-3 (P17931 whole entry): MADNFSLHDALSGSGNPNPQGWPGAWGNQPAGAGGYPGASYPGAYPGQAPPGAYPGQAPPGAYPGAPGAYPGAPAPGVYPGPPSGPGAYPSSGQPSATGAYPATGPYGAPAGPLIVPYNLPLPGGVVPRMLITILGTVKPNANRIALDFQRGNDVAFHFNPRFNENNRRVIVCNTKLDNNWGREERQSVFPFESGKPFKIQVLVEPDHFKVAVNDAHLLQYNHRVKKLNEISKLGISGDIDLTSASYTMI
Method: as §1

Chain of Galectin-1 (P09382 whole entry): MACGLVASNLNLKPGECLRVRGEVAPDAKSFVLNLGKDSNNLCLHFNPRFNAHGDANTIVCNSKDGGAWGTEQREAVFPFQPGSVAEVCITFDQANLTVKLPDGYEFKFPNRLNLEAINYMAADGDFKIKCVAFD

Kd (Galectin-1) [nM] | Kd (Galectin-3) [nM] | Compound
780 | < 10 | OCC1O[C@@H](S[C@@H]2O[C@H](CO)C(O)C(n3cc(-c4cccc(F)c4)cn3)[C@H]2O)C(O)[C@@H](n2cc(-c3cccc(F)c3)cn2)[C@H]1O (some centres undefined) [US20240059728, Example 4]
890 | 6 | OCC1O[C@@H](S[C@@H]2O[C@H](CO)C(O)C(n3cc(-c4cc(F)c(F)c(F)c4)cn3)[C@H]2O)C(O)[C@@H](n2cc(-c3cc(F)c(F)c(F)c3)cn2)[C@H]1O (some centres undefined) [US20240059728, Example 5]
